Experimental data: patent US20250163057A1, “DCN-1 MODULATING COMPOUNDS AND METHODS OF USE THEREOF” (Cellarity, Inc., priority 2023, published 2025)
Where two headings read alike, the source gives them in different places.

What was measured:
[1] = test system: Cullin-3 (CUL3) neddylation; experiment: AlphaLISA assay for Cullin-3 (CUL3) neddylation in TF 1 cells; type: cell-based; conditions: Homo sapiens, TF-1, 3 h, 3 hours treatment
Method: An AiphaLISA assay was performed to evaluate the ability of the compounds to suppress neddylation, which is downstream from DCN-1 and DCN-2. A stronger inhibition of DCN-1 and DCN-2 is expected to result in a suppression of neddylation as shown by a lower AlphaLISA signal. The AlphaLISA assay for detecting Cullin-3 (CUL3) neddylation was performed according to manufacturer instructions (Revvity, Hopkinton, MA). Briefly, TF 1 cells (ATCC) were plated in Iscove's Modified Dulbecco's Medium (IMIDM) without supplements in 384-well plates. These cells were treated with […] for 3 hours before lysing them with AlphaLISA lysis buffer, 5× (Revvity). To detect the level of CUL3 neddylation, biotinylated anti-NEDD8 antibody, was added followed by AlphaLISA Acceptor beads conjugated with anti-CUL3 antibody. After overnight incubation, Streptavidin-coated Alpha Donor beads were added and incubated for 1 hour. The AlphaLISA signal was then read on a VICTOR Nivo Multimode Microplate Reader (Revvity, Hopkinton, MA). The positive control was 1 μM DI-1548, which is reported to reduce CUL3 neddylation, also referred to as C-1 in Example 41 (Zhou et al. Nature Comm. 2021). The neddylation signal was normalized such that the percent inhibition is 0% for vehicle control and 100% for positive control. The dose-response curves were fitted with the Hill equation to obtain IC50 values (Graphpad Prism).

[2] = biological target: DCN1 (DCUND1) protein PONY domain (Homo sapiens (Human), UniProt Q96GG9); experiment: TR-FRET assay, DCN1 binding with FAM-labeled probe
Summary of the method: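 Biotinylated DCN1 PONY domain, labeled with streptavidin-Tb, was competed against a FAM-labeled non-covalent DCN1 inhibitor probe in buffer with TritonX and 200 mM NaCl. Conditions were 5 nM DCN1 with 20 nM FAM-probe, or 0.31 nM DCN1 with 100 nM FAM-plus 800 nM unlabeled probe. The TR-FRET ratio was read at 1, 5 and 24 h (0.1% DMSO).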

[3] = 24 hr after treatment with compound, read-out: TR FRET IC50 24 hr
[4] = TR FRET IC50 1 hr (nM), 1 hr after treatment with compound
[5] = read-out: TR FRET IC50 1 hr, 1 hr after treatment with compound

Sequence of DCN1 (DCUND1) protein PONY domain (Q96GG9 60-248): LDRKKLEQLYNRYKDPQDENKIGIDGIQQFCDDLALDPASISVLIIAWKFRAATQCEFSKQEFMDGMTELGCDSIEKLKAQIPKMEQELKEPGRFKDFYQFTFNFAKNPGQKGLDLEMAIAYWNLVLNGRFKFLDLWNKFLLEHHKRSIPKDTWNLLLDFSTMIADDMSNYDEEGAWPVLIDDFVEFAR

| Structure (SMILES) | IC50 [1] | IC50 [2, 3] | IC50 [2, 4] | IC50 [2, 5] |
| --- | --- | --- | --- | --- |
| CCN1C(=O)[C@@H](NC(=O)c2cccc(C(F)(F)F)c2)[C@@H](c2ccc(F)cn2)c2c(C(=O)N3CCC[C@H]3C#N)nn(-c3ccccc3)c21 (mixture of isomers) [Compound I-409] | 100 to 1000 nM | ≤ 200 nM | 1000 to 3000 nM | – |
| CCN1C(=O)[C@@H](NC(=O)c2cccc(C(F)(F)F)c2)[C@@H](c2ccccn2)c2c(C(=O)N3CCC[C@H]3C#N)nn(-c3ccccc3)c21 (mixture of isomers) [Compound I-413] | ≤ 100 nM | ≤ 200 nM | 1000 to 3000 nM | – |
| CCN1C(=O)[C@H](NC(=O)c2cccc(C(F)(F)F)c2)[C@H](C2CC2)c2c(C(=O)N(C)C(C)C#N)nn(C3CCOCC3)c21 (mixture of isomers) [Compound I-415] | > 1000 nM | 1000 to 3000 nM | 1000 to 3000 nM | – |
| CCN1C(=O)[C@@H](NC(=O)c2cccc(C(F)(F)F)c2)[C@@H](c2ccc(F)cc2)c2c(C(=O)N3C[C@H](NC)C[C@H]3C#N)nn(C3CCOCC3)c21 (mixture of isomers) [Compound I-509, N-((4S,5S)-3-((2S,4R)-2-cyano-4-(methylamino)pyrrolidine-1-carbonyl)-7-ethyl-4-(4-fluorophenyl)-6-oxo-1-(tetrahydro-2H-pyran-4-yl)-4,5,6,7-tetrahydro-1H-pyrazolo[3,4-b]pyridin-5-yl)-3-(trifluoromethyl)benzamide] | ≤ 100 nM | ≤ 200 nM | – | ≤ 200 nM |
| CCN1C(=O)[C@@H](NC(=O)c2cccc(C(F)(F)F)c2)[C@@H](C2CC2)c2c(C(=O)N3[C@H](C#N)C[C@H]4C[C@H]43)nn(C(C)(C)C)c21 (mixture of isomers) [Compound I-517] | 100 to 1000 nM | 200 to 1000 nM | 1000 to 3000 nM | – |
| CCN1C(=O)[C@@H](NC(=O)c2cccc(C(F)(F)F)c2)[C@@H](C2CC2)c2c(C(=O)N(C)C(C)C#N)nn(-c3ccccc3)c21 (mixture of isomers) [Compound I-543] | 100 to 1000 nM | ≤ 200 nM | – | ≤ 200 nM |
| CCN1C(=O)[C@@H](NC(=O)c2cccc(C(F)(F)F)c2)[C@@H](c2ccc(F)cc2)c2c(C(=O)N(C)[C@H](C#N)CCN(C)C)nn(-c3ccccc3)c21 (single isomer, unassigned) [Compound I-303, (4S,5S)—N-[(1S*)-1-cyano-3-(dimethylamino)propyl]-7-ethyl-4-(4-fluorophenyl)-N-methyl-6-oxo-1-phenyl-5-[3-(trifluoromethyl)benzamido]-4H,5H-pyrazolo[3,4-b]pyridine-3-carboxamide] | ≤ 100 nM | – | – | – |
| CCN1C(=O)[C@@H](NC(=O)CS(C)(=O)=O)[C@@H](C2CC2)c2c(C(=O)N3[C@H](C#N)C[C@H]4C[C@H]43)nn(C3CCOCC3)c21 [Compound I-546] | – | 1000 to 3000 nM | 1000 to 3000 nM | – |
| CCN1C(=O)[C@@H](NC(=O)c2ccc3c(c2)CCO3)[C@@H](C2CC2)c2c(C(=O)N3[C@H](C#N)C[C@H]4C[C@H]43)nn(C3CCOCC3)c21 [Compound I-547] | – | ≤ 200 nM | 200 to 1000 nM | – |
| CCN1C(=O)[C@@H](NC(=O)c2ccccc2)[C@@H](C2CC2)c2c(C(=O)N3[C@H](C#N)C[C@H]4C[C@H]43)nn(C3CCOCC3)c21 [Compound I-553] | – | ≤ 200 nM | 200 to 1000 nM | – |
| CCN1C(=O)[C@@H](NC(=O)COc2ccc3c(c2)CCC3)[C@@H](C2CC2)c2c(C(=O)N3[C@H](C#N)C[C@H]4C[C@H]43)nn(C3CCOCC3)c21 [Compound I-554] | – | 1000 to 3000 nM | 1000 to 3000 nM | – |
| CCN1C(=O)[C@@H](NC(=O)CC#N)[C@@H](C2CC2)c2c(C(=O)N3[C@H](C#N)C[C@H]4C[C@H]43)nn(C3CCOCC3)c21 [Compound I-555] | – | 1000 to 3000 nM | 1000 to 3000 nM | – |
| CCN1C(=O)[C@@H](NC(=O)CCN2C(=O)COc3ccccc32)[C@@H](C2CC2)c2c(C(=O)N3[C@H](C#N)C[C@H]4C[C@H]43)nn(C3CCOCC3)c21 [Compound I-556] | – | 1000 to 3000 nM | 1000 to 3000 nM | – |
| CCN1C(=O)[C@@H](NC(=O)c2ccc(N3CCN(C)CC3)cn2)[C@@H](C2CC2)c2c(C(=O)N3[C@H](C#N)C[C@H]4C[C@H]43)nn(C3CCOCC3)c21 [Compound I-588] | – | 1000 to 3000 nM | 1000 to 3000 nM | – |
| CCN1C(=O)[C@@H](NC(=O)c2cncc(C(F)(F)F)n2)[C@@H](C2CC2)c2c(C(=O)N3[C@H](C#N)C[C@H]4C[C@H]43)nn(C3CCOCC3)c21 [Compound I-590] | – | 1000 to 3000 nM | 1000 to 3000 nM | – |
| CCN1C(=O)[C@@H](NC(=O)C2=NN(c3ccccc3)C(=O)C2)[C@@H](C2CC2)c2c(C(=O)N3[C@H](C#N)C[C@H]4C[C@H]43)nn(C3CCOCC3)c21 [Compound I-591] | – | 1000 to 3000 nM | 1000 to 3000 nM | – |
